Measured values published in patent US20240247289A1, “ANTIBIOTIC FREE FERMENTATIONS, SYSTEMS AND METHODS FOR ACHIEVING ANTIBIOTIC FREE FERMENTATIONS, AND FE[…]-PRODUCTS GENERATED BY ANTIBIOTIC FREE FERMENTATIONS” (POET Research, Inc., priority 2023, published 2024).

How the values were obtained:
lactic acid bacteria [1] = conditions: cook process fermentation, infected, formic acid 100-400 ppm without hop acids (FIG. 4)
Procedure: (§1) Saccharomyces cerevisiae, was added to a yeast propagation set up as follows. Liquefied corn slurry acquired from a biorefinery was diluted in an appropriate ratio to obtain slurry (mash) with 20 percent dry solids (including the solids contributed by the pre-blend water). The pH of the slurry liquefact was approximately 5.0-5.5. The enzyme blend for fermentation was added to the slurry. Urea (50 percent liquor) was added to the slurry to give a final concentration of approximately 1000 ppm urea. The slurry was dispensed in 100 milliliter wide mouth bottles at 60 milliliters per bottle. The bottles were covered with a bottle cap with a 1/16″ hole drilled into the top for gas release following addition of enzyme and inoculation of the necessary organisms and placed stationary in a water bath. The fermentation temperature was held constant at 32.2 degrees Celsius for 8-16 hours. This yeast propagation was then used to inoculate fermentations including yeast at a ratio level of 2% total fermentation volume.
(§2) Liquefied corn slurry was acquired from a biorefinery with 30-35% percent dry solids (including the solids contributed by the pre-blend water). The pH of the slurry was approximately 5.0. The enzyme blend for fermentation was added to the slurry. Urea (50 percent liquor) was added to the slurry to give a final concentration of approximately 1000 ppm urea. The slurry was mixed in 100 milliliter wide mouth bottles at 60 milliliters per bottle. The bottles were covered with a bottle cap with a 1/16″ hole drilled into the top for gas release following addition of enzyme and inoculation of the necessary organisms and placed stationary in a water bath. The fermentation temperature was held constant at 33 degrees Celsius for 72 hours. Bottles were mixed well, and samples were withdrawn at various intervals during the course of fermentation and analyzed for sugars, organic acids and ethanol using high performance liquid chromatography (HPLC).

Saccharomyces cerevisiae [2] = conditions: cook process fermentation, infected
Procedure: as §1, §2

lactic acid bacteria [3] = conditions: RSH fermentation, infected samples, formic acid alone 100-400 ppm (FIG. 2)
Procedure: (§3) Saccharomyces cerevisiae, yeast was added to a yeast propagation set up as follows. Ground corn was mixed with “pre-blend” (a mixture of the waters from various streams that are reused in an ethanol production facility) in an appropriate ratio to obtain slurry (mash) with 35 percent dry solids (including the solids contributed by the pre-blend water). “Preblend” was used as make up water in these studies to simulate the composition of mash, employing an exemplary embodiment provided herein, as it would be in a commercial ethanol production facility. The pH of the corn and “pre blend” slurry was approximately 4.5-4.8. An enzyme blend for raw starch hydrolysis was added to the slurry. Urea (50 percent liquor) was added to the slurry to give a final concentration of approximately 1000 ppm urea. The slurry was mixed in 100 milliliter wide mouth bottles at 60 milliliters per bottle. The bottles were covered with a bottle cap with a 1/16″ hole drilled into the top for gas release following addition of enzyme and the yeast and placed stationary in a water bath. […]
(§4) The slurry was mixed in 100 milliliter wide mouth bottles at 60 milliliters per bottle. […] Bottles were mixed well, and samples were withdrawn at various intervals during the course of fermentation and analyzed for sugars, organic acids and ethanol using high performance liquid chromatography (HPLC).

Saccharomyces cerevisiae [4] = conditions: RSH fermentation, infected samples, formic acid alone 100-400 ppm, compared to other infected samples (FIG. 1)
Procedure: as §3, §4

## O=CO [formic acid]
Lactic acid bacteria [1]
  Ppm lactic acid at 72 hours: decreased dose dependently
Saccharomyces cerevisiae [2]; formic acid treated samples, at most dosages (FIG. 3)
  % v/v ethanol at 72 hours, vs Phibro Xact 2.5 ppm: greater than the % v/v ethanol generated by fermentation with Phibro Xact
Saccharomyces cerevisiae [2]; increasing doses of formic acid alone 100-400 ppm (FIG. 3)
  % v/v ethanol at 72 hours: increase in % v/v ethanol
Lactic acid bacteria [3]
  ppm lactic acid at 88 hours: reduced lactic acid ppm at 88 hours fermentation in a dose dependent method
Saccharomyces cerevisiae [4]
  % v/v ethanol at 88 hours: substantially reduced % v/v ethanol
